Laboratory results from patent EP4424303A1, “LENVATINIB COMPOSITION WITH IMPROVED BIOAVAILABILITY” (STADA ARZNEIMITTEL AG, priority 2023, dated 2024).
Structures can show the parent of a compound that is named as a salt.

Assay: Saturation (equilibrium) solubility by shake-flask technique
Format: physicochemical
Details: thermodynamic from solid, 37 °C ± 1 °C
Protocol: The equilibrium solubility of Lenvatinib mesylate in different dissolution media at 37 °C ± 1 °C was measured by shake-flask technique. The dissolution media were prepared according to USP. The pH for each test solution was measured after the addition of the drug substance and at the end of the equilibrium solubility study.
1. Table 1: saturation solubility of Lenvatinib mesylate depending on pH

## COc1cc2nccc(Oc3ccc(NC(=O)NC4CC4)c(Cl)c3)c2cc1C(N)=O [Lenvatinib mesylate, 4-[3-chloro-4-(cyclopropylaminocarbonyl)aminophenoxy]-7-methoxy-6-quinolinecarboxamide]
USP dissolution medium pH 2.0, simulated gastric fluid, pH 2.0, Initial pH 2.0, Final pH 1.88
  solubility: 2620 µg/mL
USP dissolution medium pH 4.5, aqueous buffer, pH 4.5, Initial pH 4.52, Final pH 4.38
  solubility: 13 µg/mL
USP dissolution medium pH 5.5, aqueous buffer, pH 5.5, Initial pH 5.49, Final pH 5.25
  solubility: 3 µg/mL
USP dissolution medium pH 6.8, aqueous buffer, pH 6.8, Initial pH 6.82, Final pH 6.68
  solubility: 1 µg/mL
Simulated gastric fluid, 0.1N HCl, Initial pH 1.1, Final pH 1.23
  solubility: 1830 µg/mL
